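Protocol summary: plate cells (96-well), add compound at 5 concentrations, incubate 48 h, interpolate endpoints linearly. TGI marks complete inhibition of growth.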
Tests used:
Assay in all cases: inhibition of tumour cell growth, NCI panel, 48 h
SW-620 colon = tested on: SW-620 colon
A498 renal = tested on: A498 renal
786-0 renal = tested on: 786-0 renal
HCT-15 colon = tested on: HCT-15 colon
SR leukemia = tested on: SR leukemia
SF-539 CNS = tested on: SF-539 CNS
OVCAR-8 ovarian = tested on: OVCAR-8 ovarian
COLO 205 colon = tested on: COLO 205 colon
HCT-116 colon = tested on: HCT-116 colon
U251 CNS = tested on: U251 CNS
A549 NSCLC = tested on: A549 NSCLC
CCRF-CEM leukemia = tested on: CCRF-CEM leukemia
OVCAR-5 ovarian = tested on: OVCAR-5 ovarian
K-562 leukemia = tested on: K-562 leukemia
LOX IMVI melanoma = tested on: LOX IMVI melanoma
UO-31 renal = tested on: UO-31 renal
HOP-92 NSCLC = tested on: HOP-92 NSCLC
MDA-N = tested on: MDA-N
IGROV1 ovarian = tested on: IGROV1 ovarian
RXF 393 renal = tested on: RXF 393 renal
CAKI-1 renal = tested on: CAKI-1 renal
KM12 colon = tested on: KM12 colon
MDA-MB-435 = tested on: MDA-MB-435
ACHN renal = tested on: ACHN renal
SF-295 CNS = tested on: SF-295 CNS
MALME-3M melanoma = tested on: MALME-3M melanoma
NCI-H460 lung = tested on: NCI-H460 lung
TK-10 renal = tested on: TK-10 renal
NCI/ADR-RES ovarian = tested on: NCI/ADR-RES ovarian
PC-3 prostate = tested on: PC-3 prostate
M14 melanoma = tested on: M14 melanoma
MDA-MB-231 breast = tested on: MDA-MB-231 breast
RPMI-8226 leukemia = tested on: RPMI-8226 leukemia
MOLT-4 leukemia = tested on: MOLT-4 leukemia
OVCAR-3 ovarian = tested on: OVCAR-3 ovarian
SF-268 CNS = tested on: SF-268 CNS
MCF7 breast = tested on: MCF7 breast
HS 578T breast = tested on: HS 578T breast
DU-145 prostate = tested on: DU-145 prostate
SK-MEL-5 melanoma = tested on: SK-MEL-5 melanoma
UACC-62 melanoma = tested on: UACC-62 melanoma
HCC-2998 colon = tested on: HCC-2998 colon
SN12C renal = tested on: SN12C renal
NCI-H23 lung = tested on: NCI-H23 lung
HT29 colon = tested on: HT29 colon
SK-OV-3 ovarian = tested on: SK-OV-3 ovarian
OVCAR-4 ovarian = tested on: OVCAR-4 ovarian
NCI-H226 lung = tested on: NCI-H226 lung
SK-MEL-2 melanoma = tested on: SK-MEL-2 melanoma
HL-60(TB) leukemia = tested on: HL-60(TB) leukemia
SK-MEL-28 melanoma = tested on: SK-MEL-28 melanoma
T-47D breast = tested on: T-47D breast
HOP-62 NSCLC = tested on: HOP-62 NSCLC
SNB-19 CNS = tested on: SNB-19 CNS
SNB-75 CNS = tested on: SNB-75 CNS
EKVX NSCLC = tested on: EKVX NSCLC
NCI-H522 lung = tested on: NCI-H522 lung
BT-549 breast = tested on: BT-549 breast
UACC-257 melanoma = tested on: UACC-257 melanoma

In the case of `c1csc(-c2nnc(C34CC5CC(CC(C5)C3)C4)o2)c1`, the TGI (SW-620 colon) is reported as greater than 100 µM, the TGI (A498 renal) is reported as 43.9 µM and the TGI (786-0 renal) is reported as 60.2 µM. It also gave a TGI (HCT-15 colon) greater than 100 µM, a TGI (SR leukemia) of 66.6 µM and a TGI (SF-539 CNS) of 40.1 µM. It also gave a TGI (OVCAR-8 ovarian) of 98.4 µM, a TGI (COLO 205 colon) of 31.2 µM and a TGI (HCT-116 colon) greater than 100 µM. The TGI (U251 CNS) was greater than 100 µM, the TGI (A549 NSCLC) was greater than 100 µM and the TGI (CCRF-CEM leukemia) was 47.4 µM. It also gave a TGI (OVCAR-5 ovarian) greater than 100 µM, a TGI (K-562 leukemia) greater than 100 µM and a TGI (LOX IMVI melanoma) of 47.1 µM. The TGI (UO-31 renal) was 15.6 µM, the TGI (HOP-92 NSCLC) was 54.8 µM and the TGI (MDA-N) was greater than 100 µM. It also gave a TGI (IGROV1 ovarian) greater than 100 µM, a TGI (RXF 393 renal) of 54.7 µM and a TGI (CAKI-1 renal) greater than 100 µM. It also gave a TGI (KM12 colon) greater than 100 µM, a TGI (MDA-MB-435) greater than 100 µM and a TGI (ACHN renal) greater than 100 µM. The TGI (SF-295 CNS) was greater than 100 µM, the TGI (MALME-3M melanoma) was 39.4 µM and the TGI (NCI-H460 lung) was greater than 100 µM. The TGI (TK-10 renal) was greater than 100 µM, the TGI (NCI/ADR-RES ovarian) was 57 µM and the TGI (PC-3 prostate) was greater than 100 µM. It also gave a TGI (M14 melanoma) greater than 100 µM, a TGI (MDA-MB-231 breast) of 45.7 µM and a TGI (RPMI-8226 leukemia) of 77.5 µM. The TGI (MOLT-4 leukemia) was 60 µM, the TGI (OVCAR-3 ovarian) was 38.5 µM and the TGI (SF-268 CNS) was greater than 100 µM. The TGI (MCF7 breast) was greater than 100 µM, the TGI (HS 578T breast) was 74.6 µM and the TGI (DU-145 prostate) was greater than 100 µM. It also gave a TGI (SK-MEL-5 melanoma) of 30.8 µM, a TGI (UACC-62 melanoma) greater than 100 µM and a TGI (HCC-2998 colon) greater than 100 µM. The TGI (SN12C renal) was greater than 100 µM, the TGI (NCI-H23 lung) was greater than 100 µM and the TGI (HT29 colon) was 36.3 µM. The TGI (SK-OV-3 ovarian) was greater than 100 µM, the TGI (OVCAR-4 ovarian) was greater than 100 µM and the TGI (NCI-H226 lung) was greater than 100 µM. It also gave a TGI (SK-MEL-2 melanoma) of 55.4 µM, a TGI (HL-60(TB) leukemia) of 33.5 µM and a TGI (SK-MEL-28 melanoma) greater than 100 µM. It also gave a TGI (T-47D breast) greater than 100 µM, a TGI (HOP-62 NSCLC) greater than 100 µM and a TGI (SNB-19 CNS) greater than 100 µM. It also gave a TGI (SNB-75 CNS) of 75.8 µM, a TGI (EKVX NSCLC) greater than 100 µM and a TGI (NCI-H522 lung) greater than 100 µM.
For `COc1cc([C@@H]2c3cc4c(cc3[C@@H](Nc3ccc(NC(=O)c5cc(NC(=O)c6cc([N+](=O)[O-])cn6C)cn5C)cc3)[C@H]3COC(=O)[C@H]23)OCO4)cc(OC)c1O`, the TGI (SW-620 colon) was greater than 62.5 µM, the TGI (A498 renal) was greater than 52.9 µM and the TGI (786-0 renal) was greater than 39.7 µM. For the same compound, the TGI (HCT-15 colon) was greater than 55.2 µM, the TGI (SR leukemia) was greater than 100 µM and the TGI (SF-539 CNS) was greater than 100 µM. It also gave a TGI (OVCAR-8 ovarian) of 89.8 µM, a TGI (BT-549 breast) greater than 100 µM and a TGI (COLO 205 colon) of 17.8 µM. It also gave a TGI (UACC-257 melanoma) greater than 82.4 µM, a TGI (HCT-116 colon) of 33.3 µM and a TGI (U251 CNS) of 26.2 µM. It also gave a TGI (A549 NSCLC) greater than 49.9 µM, a TGI (CCRF-CEM leukemia) greater than 37.8 µM and a TGI (OVCAR-5 ovarian) of 99.6 µM. The TGI (K-562 leukemia) was 14.4 µM, the TGI (LOX IMVI melanoma) was greater than 44.1 µM and the TGI (UO-31 renal) was greater than 53 µM. It also gave a TGI (HOP-92 NSCLC) greater than 39.2 µM, a TGI (MDA-N) greater than 100 µM and a TGI (IGROV1 ovarian) greater than 39 µM. It also gave a TGI (RXF 393 renal) greater than 62.3 µM, a TGI (CAKI-1 renal) greater than 28.5 µM and a TGI (KM12 colon) of 61.8 µM. For the same compound, the TGI (ACHN renal) was 12.1 µM, the TGI (SF-295 CNS) was greater than 100 µM and the TGI (MALME-3M melanoma) was greater than 100 µM. For the same compound, the TGI (NCI-H460 lung) was 13.2 µM, the TGI (TK-10 renal) was greater than 100 µM and the TGI (NCI/ADR-RES ovarian) was greater than 100 µM. It also gave a TGI (M14 melanoma) of 47.7 µM, a TGI (MDA-MB-231 breast) greater than 64 µM and a TGI (RPMI-8226 leukemia) of 0.486 µM. The TGI (OVCAR-3 ovarian) was greater than 100 µM, the TGI (SF-268 CNS) was greater than 79.7 µM and the TGI (MCF7 breast) was greater than 39.1 µM. For the same compound, the TGI (HS 578T breast) was greater than 100 µM, the TGI (DU-145 prostate) was 5.22 µM and the TGI (SK-MEL-5 melanoma) was greater than 33.5 µM. For the same compound, the TGI (UACC-62 melanoma) was greater than 100 µM, the TGI (HCC-2998 colon) was 26.4 µM and the TGI (SN12C renal) was 26.5 µM. For the same compound, the TGI (NCI-H23 lung) was greater than 48.7 µM, the TGI (HT29 colon) was 98.4 µM and the TGI (SK-OV-3 ovarian) was greater than 55.7 µM. For the same compound, the TGI (OVCAR-4 ovarian) was greater than 100 µM, the TGI (NCI-H226 lung) was greater than 44.4 µM and the TGI (SK-MEL-2 melanoma) was greater than 100 µM. It also gave a TGI (HL-60(TB) leukemia) of 11.3 µM, a TGI (T-47D breast) greater than 62.8 µM and a TGI (HOP-62 NSCLC) of 14.4 µM. For the same compound, the TGI (SNB-19 CNS) was greater than 55.1 µM, the TGI (SNB-75 CNS) was 37 µM and the TGI (EKVX NSCLC) was greater than 64.2 µM. For the same compound, the TGI (NCI-H522 lung) was greater than 100 µM.

Reference: PubChem BioAssay (NCI)
